Assay results as given in US20220041578A1, “ISOINDOLINE COMPOUND, AND PREPARATION METHOD, PHARMACEUTICAL COMPOSITION, AND APPLICATION OF ISOINDOLINE COMPOUND” (Shanghai Institute of Meteria Medica, Chinese Academy of …, priority 2018, published 2022).

How the values were obtained:
Assay type in all cases: cell-based
[1] = test system: Mino cells; assay: Effect of the compound on the proliferation of Mino cells (MTS); conditions: Homo sapiens, 72 h, 3 days, read-out: Inhibitory activity (IC50)
Method in brief: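 Mino cells, 8000/well, treated 3 days at 37 °C/5% CO2 with 5-fold compound dilutions from 10 mM stock (0.2% DMSO final). MTS added for 3-4 h; OD490 minus OD690 read, inhibition relative to DMSO and blank, IC50 fitted. Three repeats, each in triplicate.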

[2] = test system: triple negative breast cancer cells MDA-MB-231; assay: Proliferation of other tumor cells, MDA-MB-231 (WST-8); conditions: Homo sapiens, 96 h, MDA-MB-231 cells, 4 days, read-out: Inhibitory activity on proliferation, MDA-MB-231 (IC50)
Procedure: The human triple negative breast cancer cells MDA-MB-468 and MDA-MB-231 used in this experiment were purchased from the Shanghai Cell Bank, in which L-15 medium added with 10% fetal bovine serum (FBS) and 1% double antibody was used. At 37° C., MDA-MB-468 and MDA-MB-231 cells were cultured in an incubator without CO2. Colorectal cancer cells HCT-116 were cultured in McCOY's 5A medium with 1% double antibody and 10% fetal bovine serum (FBS); prostate cancer cells DU145 were cultured in MEM medium with 1% double antibody and 10% fetal bovine serum (FBS); prostate cancer cells PC-3 were cultured in F-12 K medium with 1% double antibody and 10% fetal bovine serum (FBS); grew at 37° C., 5% CO2.
In the cell activity test experiment, 90 μL cell suspension with appropriate concentration was added to a 96-well cell culture plate according to the cell growth, each compound to be tested was gradient diluted with the corresponding medium, 10 μL diluted compound was added to 90 μL cells, and then incubated at 37° C. for 4 days. Cell proliferation was analyzed by WST-8, which could be reduced by lactate dehydrogenase in the cells to a yellow formazan. 10 μL of WST-8 reagent (DOJINDO) was added to the cells and reacted for more than 1 hour at 37° C., DMSO-treated cells were used as […]. The absorption value of 490 nm was read by enzyme-labeled plate, and the absorption value of 690 nm was taken as the background value, and OD490-OD690 was taken as the final original data, and the data was processed by GraphPad Prism6 software. The formula for calculating the inhibition rate of the compound was: inhibition rate=(ODDMSO−ODcompound)/(ODDMSO−Oblank)×100%. The compound's proliferation inhibition IC50 was fitted by Graph Pad Prism 5.0. The experiment was repeated three times, and three parallel experiments were used to calculate the average and standard deviation each time. The cell viability test results were shown in Table 4: A means cell viability IC50<1 μM, B means cell viability 1 μM≤IC50≤20 μM, C means cell viability IC50>20 μM, NT means not tested.

[3] = test system: TNF-α; assay: TNF-α activity inhibition experiment in LPS-stimulated PBMC (ELISA); conditions: Homo sapiens, compound 10 nM, LPS 1 ug/ml, 72 hours, read-out: Inhibition rate of TNF-a (%)
Procedure: (§1) All operations of this experiment were carried out according to the conventional experimental process of this kind of experiment at present. Peripheral blood from healthy volunteers was collected by routine standard procedure and cultured in 1640 medium (+10% FBS) to obtain PBMC. After recovery, PBMC was centrifuged and resuspended in serum-free medium. After counting, adjusted the density to be 6.25×10^5/ml; then inoculated 160 ul to a 96-well plate, 1×10^5/well; 20 ul 10× compound and DMSO were added, and incubated for 1 hour in an incubator; then 20 ul 10 XLPS was added resulting the final concentration of 1 ug/ml and incubated in an incubator for 72 hours. Centrifuged the cell plate at 1500 rpm and aspirated 50 ul supernatant according to the ELISA operation. After operating according to the kit, a microplate reader was used to read at 450 nm. The concentration of compound was 10 nM, and DMSO was added as control group. Materials used in this experiment: 96 well plate (Corning, #3599), ELISA kit (Thermo), LPS (Sigma, USA).

[4] = test system: IFNγ; assay: IFNγ expression change in anti-human CD3 stimulated PBMC (ELISA); conditions: compound 10 nM, anti-human CD3 10 ug/ml, 24 hours
Procedure: as §1, with “plate, 2 holes each,” for “plate,”, “ul 10× anti-human CD3” for “ul 10 XLPS”, “of 10” for “of 1”, “for 24” for “for 72”, “USA). It was found from the test results of the following table that the compounds of the examples of the present invention could be used to regulate the expression of IFNγ.” for “USA).”

- IC50 [2]: > 20 µM
SMILES: Nc1cccc2c1CN(C1CCC(=O)NC1=O)C2=O (stereo not shown) [Lenalidomide, lenalidomide, reference compound]
- IC50 [1]: > 20 µM
- inhibition at 0.01 µM [3]: < 50%
- Increase multiple of IFNγ expression [4]: >1.5
